Source: patent US4336253A, “Cephalosporin antibiotics” (Eli Lilly and Company, priority 1981, dated 1982)

Assay: physchem
[1] = 66% dmf, first titratable group
[2] = 66% dmf, second titratable group

Row | SMILES | pKa [1] | pKa [2] | pKa (water, first titratable group) | pKa (water, second titratable group)
1 | O=C(Cc1ccccn1)NO [N-hydroxy-2-pyridineacetamide] | ~3.4 | 11.7 | 4.05 | 9.2
2 | O=C(Cc1cccnc1)NO [N-hydroxy 3-pyridineacetamide] | 3.68 | 11.5 | 4.6 | 9.09
3 | CN(O)C(=O)c1ccncc1 [N-hydroxy-N-methyl 4-pyridinecarboxamide] |  |  | 3.55 | 7.9
